Test results taken from PubChem BioAssay AID1963846 (Molecular Pharmacology Branch, DTP, NCI, 2024).
Where “and” joins values, the source holds several entries; their conditions need not be identical. Identical values can stand only once.

System: 454973-116-R2-J3-PDC complex spheroid viability
Assay: Anticancer human tumor 454973-116-R2-J3-PDC patient-derived pancreatic carcinoma cell line growth inhibition [POLQ]
Conditions: for viability, T/C: stronger effect = lower value
Description: Multicellular complex tumor spheroid response to Polymerase (POL) inhibitors (novobiocin, ART-558, RP6685) in combination with a variety of drugs and investigational agents in selected tumor cell lines
The POL inhibitors (novobiocin, ART-558, and RP6685) were evaluated both individually and in combination with standard of care and investigational anticancer small molecules within a complex spheroid model of solid tumors. . Complex spheroids include a stromal component modeled by human endothelial cells (HUVEC) and fibroblasts modeled by human mesenchymal stem cells (MSCs). The concentration ranges selected for each drug and investigational agent were based upon clinically achievable concentrations if the clinical Cmax of the agent was known.
Compounds. The drugs and investigational agents: novobiocin (NSC847541), ART-558 (NSC835418), RP-6685 (NSC848927), peposertib (NSC802822), ceralasertib (NSC780249), elimusertib (NSC800525), camonsertib (NSC841442), AZD-1390 (NSC803789), olaparib (NSC753686), talazoparib (NSC767125), rucaparib (NSC756644), sotorasib (NSC818433), MRTX-1133 (NSC836407), SN-38 (NSC673596), topotecan (NSC609699), epotoside (NSC141540), doxorubicin (NSC123127), gemcitabine (NSC613327), 5-fluorouracil (NSC19893), paclitaxel (NSC125973), vemurafenib (NSC761431), MSA-2 (NSC828583), SN-011 (NSC837082), adavosertib (NSC754352), prexasertib (NSC758257), carboplatin (NSC241240) and oxaliplatin (NSC266046), were obtained from the National Cancer Institute (NCI) Developmental Therapeutics Program Chemical Repository (21). The FDA-approved anticancer drug set is available from the Developmental Therapeutics Program at https://dtp.cancer.gov/organization/dscb/obtaining/. […] The stock solutions were prepared in dimethyl sulfoxide (DMSO, Sigma-Aldrich, St. Louis, MO, cat. D2650), except for the platinum compounds which were prepared in saline (Quality Biological, Gaithersburg, MD, cat. 114-055-101), at 800-fold the tested concentration and stored at -70 degrees C prior to their use. All drugs and investigational agents were tested over a range starting from a high concentration at or near the clinical Cmax and decreasing in half-log increments. If the clinical Cmax for an agent had not been determined, the highest concentration tested was 10 microM, except for SN-38, which was tested at a high concentration of 1 microM.
Cell Culture. All cells were maintained in an incubator at 37 degrees C and 5% CO2 with 95% humidity. The PDC lines were cultured according to standard operating procedures established by the NCI PDMR (https://pdmr.cancer.gov). Table 3 of the manuscript, lists the cell lines along with the number of the three cell types plated to form the mct-spheroids and media for tumor cell growth. After thawing, all PDC lines, except 997537-175-T-J1-PDC and 415267-285-R-J2-PDC, were cultured in Matrigel-coated flasks prepared with a working solution of 1X Ham's F-12 nutrient mix, without supplementation (Thermo Fisher Scientific, cat. 11765054), 100 U/mL penicillin-streptomycin (Thermo Fisher Scientific, cat. 15140122), and 2.5% Matrigel (Corning Inc., Corning, NY, cat. 354248) for the first three passages. The two PDC lines 997537-175-T-J1-PDC and 415267-285-R-J2-PDC were cultured on uncoated flasks. The 857933-349-R-J2-PDC line was cultured in 6C/Colon 1B media containing advanced DMEM/F-12 (Thermo Fisher Scientific, cat. 12634028), 10 mM HEPES (Thermo Fisher Scientific, cat. 15630080), 1X GlutaMAX supplement (Thermo Fisher Scientific, cat. 35050061), 0.1 mg/mL primocin (InvivoGen, San Diego, CA, cat. ant-pm-2), 10% defined fetal bovine serum, heat inactivated (HyClone Laboratories Inc., Logan, UT, cat. SH30070.03HI), 50% L-WRN conditioned media (ATCC, cat. CRL-3276), 1.25 mM N-Acetyl-L-cysteine (Sigma-Aldrich, cat. A9165), 10 mM nicotinamide (Sigma-Aldrich, cat. N0636), 1X B-27 supplement (Thermo Fisher Scientific, cat. 17504044), 1X N-2 supplement (Thermo Fisher Scientific, cat. […]
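Further: spheroids exposed to drugs for seven days before measurement.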
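Wherever viability, T/C is given: percent viability relative to DMSO vehicle control wells taken as 100%.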

CC1COCCN1c1cc(C2(S(C)(=N)=O)CC2)nc(-c2ccnc3[nH]ccc23)n1 (stereo not given)
viability, T/C (compound 0.0316 µM): 112% and 105% and 108%
viability, T/C (compound 0.1 µM): 105% and 106% and 102%
viability, T/C (compound 0.316 µM): 108% and 109% and 103%
viability, T/C (compound 1 µM): 100% and 95.8% and 92%
viability, T/C (compound 3.16 µM): 79.7% and 65.6% and 90.4%
viability, T/C (compound 10 µM): 32.3% and 23.4% and 33.7%
IC50 (curve of compound): 6.52 µM and 4.82 µM and 7.12 µM

C#Cc1c(F)ccc2cc(O)cc(-c3ncc4c(N5CC6CCC(C5)N6)nc(OCC56CCCN5CC(F)C6)nc4c3F)c12 (stereo not given)
viability, T/C (compound 0.0316 µM): 57.4% and 52.2% and 68.6%
viability, T/C (compound 0.1 µM): 44.5% and 37.2% and 52.2%
viability, T/C (compound 0.316 µM): 32.2% and 26% and 35.8%
viability, T/C (compound 1 µM): 28.6% and 24.5% and 29.1%
viability, T/C (compound 3.16 µM): 23.6% and 21.5% and 29.5%
viability, T/C (compound 10 µM): 21.4% and 19.2% and 26.2%
IC50 (curve of compound): 0.0591 µM and 0.0375 µM and 0.117 µM

Nc1ccn(C2OC(CO)C(O)C2(F)F)c(=O)n1 (stereo not given)
viability, T/C (compound 0.0316 µM): 12.9% and 5.69% and 16.6%
viability, T/C (compound 0.1 µM): 14.2% and 8.25% and 9.25%
viability, T/C (compound 0.316 µM): 11.2% and 8.63% and 12.6%
viability, T/C (compound 1 µM): 14.3% and 7.78% and 11.7%
viability, T/C (compound 3.16 µM): 12% and 9.22% and 12.5%
viability, T/C (compound 10 µM): 11.3% and 5.91% and 10.8%
IC50 (curve of compound): < 0.0316 µM

O=C(c1cc(Cc2n[nH]c(=O)c3ccccc23)ccc1F)N1CCN(C(=O)C2CC2)CC1
viability, T/C (compound 0.0316 µM): 105% and 99.8% and 97.1%
viability, T/C (compound 0.1 µM): 96.5% and 99% and 104%
viability, T/C (compound 0.316 µM): 101%
viability, T/C (compound 1 µM): 91.2% and 104% and 90.5%
viability, T/C (compound 3.16 µM): 104% and 102% and 95.3%
viability, T/C (compound 10 µM): 60.6% and 62.5% and 54.9%
IC50 (curve of compound): > 10 µM

COc1cc(C2c3cc4c(cc3C(OC3OC5COC(C)OC5C(O)C3O)C3COC(=O)C23)OCO4)cc(OC)c1O (stereo not given) + COC1C(OC(N)=O)C(O)C(Oc2ccc3c(O)c(NC(=O)c4ccc(O)c(CC=C(C)C)c4)c(=O)oc3c2C)OC1(C)C
IC50 (curve of first compound, second compound 0.0316 µM): 1.59 µM
IC50 (curve of first compound, second compound 0.1 µM): 1.57 µM
IC50 (curve of first compound, second compound 0.316 µM): 1.81 µM
IC50 (curve of first compound, second compound 1 µM): 1.6 µM
IC50 (curve of first compound, second compound 3.16 µM): 1.49 µM
IC50 (curve of first compound, second compound 10 µM): 1.33 µM
viability, T/C (second compound 0.0316 µM, first compound 0.0316 µM): 97.7%
viability, T/C (second compound 0.0316 µM, first compound 0.1 µM): 108%
viability, T/C (second compound 0.0316 µM, first compound 0.316 µM): 92.7%
viability, T/C (second compound 0.0316 µM, first compound 1 µM): 66.8%
viability, T/C (second compound 0.0316 µM, first compound 3.16 µM): 25.3%
viability, T/C (second compound 0.0316 µM, first compound 10 µM): 9.55%
viability, T/C (second compound 0.1 µM, first compound 0.0316 µM): 100%
viability, T/C (second compound 0.1 µM, first compound 0.1 µM): 111%
viability, T/C (second compound 0.1 µM, first compound 0.316 µM): 93%
viability, T/C (second compound 0.1 µM, first compound 1 µM): 67.8%
viability, T/C (second compound 0.1 µM, first compound 3.16 µM): 23.5%
viability, T/C (second compound 0.1 µM, first compound 10 µM): 11.8%
viability, T/C (second compound 0.316 µM, first compound 0.0316 µM): 106%
viability, T/C (second compound 0.316 µM, first compound 0.1 µM): 107%
viability, T/C (second compound 0.316 µM, first compound 0.316 µM): 93.8%
viability, T/C (second compound 0.316 µM, first compound 1 µM): 81.2%
viability, T/C (second compound 0.316 µM, first compound 3.16 µM): 20.7%
viability, T/C (second compound 0.316 µM, first compound 10 µM): 9.08%
viability, T/C (second compound 1 µM, first compound 0.0316 µM): 116%
viability, T/C (second compound 1 µM, first compound 0.1 µM): 97.9%
viability, T/C (second compound 1 µM, first compound 0.316 µM): 95.6%
viability, T/C (second compound 1 µM, first compound 1 µM): 70.4%
viability, T/C (second compound 1 µM, first compound 3.16 µM): 21.9%
viability, T/C (second compound 1 µM, first compound 10 µM): 10.6%
viability, T/C (second compound 3.16 µM, first compound 0.0316 µM): 118%
viability, T/C (second compound 3.16 µM, first compound 0.1 µM): 101%
viability, T/C (second compound 3.16 µM, first compound 0.316 µM): 96.6%
viability, T/C (second compound 3.16 µM, first compound 1 µM): 63.6%
viability, T/C (second compound 3.16 µM, first compound 3.16 µM): 24.7%
viability, T/C (second compound 3.16 µM, first compound 10 µM): 9.62%
viability, T/C (second compound 10 µM, first compound 0.0316 µM): 122%
viability, T/C (second compound 10 µM, first compound 0.1 µM): 94.7%
viability, T/C (second compound 10 µM, first compound 0.316 µM): 90.6%
viability, T/C (second compound 10 µM, first compound 1 µM): 61.4%
viability, T/C (second compound 10 µM, first compound 3.16 µM): 21.4%
viability, T/C (second compound 10 µM, first compound 10 µM): 8.32%
